The values that follow come from PubChem BioAssay (NCI).

Among the test systems are HCC-2998 colon; HL-60(TB) leukemia; IGROV1 ovarian; MALME-3M melanoma; NCI-H460 lung; NCI-H522 lung; PC-3 prostate; SF-295 CNS; SNB-75 CNS; UO-31 renal.
Common to all, as to assay: NCI anticancer screen, dose series, 48 h

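Cultured in 96-well plates, cells were exposed to test compound for 48 hours across five concentrations. TGI: concentration producing complete growth inhibition.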

On to `Nc1nc2c(ncn2Cc2ccccc2CO)c(=O)[nH]1`, for which the TGI with HCC-2998 colon, in the experiment on HL-60(TB) leukemia, with IGROV1 ovarian, in the experiment with MALME-3M melanoma, with NCI-H460 lung and in the experiment on NCI-H522 lung was over 100 µM throughout. In addition, the TGI in the experiment on PC-3 prostate, with SF-295 CNS, in the experiment with SNB-75 CNS and in the experiment with UO-31 renal was over 100 µM in each case.

Take `COC(=O)CCC(C)C1CCC2C3C(C[C@H](OC(C)=O)[C@]12C)[C@@]1(C)CCC2(C[C@H]1C[C@H]3OC(C)=O)OOC1(CC[C@]3(C)C4C[C@H](OC(C)=O)[C@]5(C)C(C(C)CCC(=O)OC)CCC5C4[C@H](OC(C)=O)C[C@@H]3C1)OO2` (some centres not stated): the TGI in the experiment with HCC-2998 colon, with HL-60(TB) leukemia, in the experiment on IGROV1 ovarian, with MALME-3M melanoma, in the experiment on NCI-H460 lung and in the experiment on NCI-H522 lung was over 100 µM in each case. The TGI in the experiment with PC-3 prostate, in the experiment on SF-295 CNS, in the experiment with SNB-75 CNS and with UO-31 renal was over 100 µM in each case.

As for `CC1C(OC2O[C@@H]3O[C@@]4(C)CC[C@H]5[C@H](C)CC[C@@H](C2C)[C@@]35O4)O[C@@H]2O[C@@]3(C)CC[C@H]4[C@H](C)CC[C@@H]1[C@@]24O3` (some centres not stated), the TGI with HCC-2998 colon, in the experiment with HL-60(TB) leukemia, in the experiment with MALME-3M melanoma, in the experiment on NCI-H460 lung, with NCI-H522 lung and in the experiment with PC-3 prostate was over 50 µM in each case. Further, the TGI with SF-295 CNS and with SNB-75 CNS was over 50 µM each time.

As to `C=C(CN1CC2C[C@](C(=O)OC)(c3cc4ccccc4[nH]3)C1C(OC)C2OC)S(=O)(=O)c1ccccc1` (some centres not stated), the TGI amounted to 3.73 µM in the experiment on HCC-2998 colon; 5.12 µM with HL-60(TB) leukemia; 8.98 µM with IGROV1 ovarian; 7.38 µM with MALME-3M melanoma; 12 µM in the experiment with NCI-H460 lung; 3.79 µM with NCI-H522 lung. Moreover, the TGI with PC-3 prostate amounted to 13 µM; in the experiment on SF-295 CNS, 14.5 µM; in the experiment on SNB-75 CNS, 11.6 µM; with UO-31 renal, 3.77 µM.

Turning to `O=C(OCc1ccccc1)N(CCCCN(CCCNCc1ccccc1)C(=O)OCc1ccccc1)CCCNCc1ccccc1`, the TGI was 0.933 µM with HCC-2998 colon; 0.507 µM in the experiment on HL-60(TB) leukemia; 2.05 µM in the experiment on IGROV1 ovarian; 3.29 µM in the experiment with MALME-3M melanoma; 0.372 µM with NCI-H460 lung; 2.61 µM in the experiment on PC-3 prostate. In addition, the TGI with SF-295 CNS is over 100 µM; in the experiment with SNB-75 CNS, 2.69 µM; with UO-31 renal, 2.75 µM.

With `O=C(C/C(=N/O)c1cc(-c2ccccc2)no1)c1ccccc1`, the TGI with HCC-2998 colon is over 100 µM; with HL-60(TB) leukemia it was 74.6 µM; with IGROV1 ovarian, 86 µM; with MALME-3M melanoma, over 100 µM; in the experiment on NCI-H460 lung, over 100 µM; with NCI-H522 lung it was 37.2 µM. Further, the TGI in the experiment on PC-3 prostate, in the experiment on SF-295 CNS and in the experiment with UO-31 renal was over 100 µM each time.

Take `C/C(=N\Nc1nc2cccnc2s1)c1ccccn1`: the TGI was 3.18 µM in the experiment on HCC-2998 colon; over 100 µM in the experiment with HL-60(TB) leukemia; 1.3 µM in the experiment with IGROV1 ovarian; 42 µM in the experiment with MALME-3M melanoma; over 100 µM in the experiment on NCI-H460 lung; 30.6 µM with PC-3 prostate. Also, the TGI with SF-295 CNS is 3.48 µM; in the experiment on SNB-75 CNS, 6.06 µM; in the experiment on UO-31 renal, 0.307 µM.

In the case of `COc1ccc2cc(-c3nc(N)nc(N4N=C(C)CC4(C)C)n3)c(=N)oc2c1`, the TGI in the experiment with HCC-2998 colon was 32.6 µM; in the experiment on HL-60(TB) leukemia it was 43.9 µM; with IGROV1 ovarian, 37.8 µM; with MALME-3M melanoma it was 32.7 µM; in the experiment with NCI-H460 lung, 35.6 µM; in the experiment with NCI-H522 lung, 27.8 µM. Moreover, the TGI in the experiment with PC-3 prostate turned out to be 39.2 µM; in the experiment on SF-295 CNS, 33.2 µM; in the experiment on UO-31 renal, 55.1 µM.

As to `O=c1cn[nH]c(=S)n1/N=C/c1c[nH]c2ccccc12`, the TGI with HCC-2998 colon is over 100 µM; with HL-60(TB) leukemia, 49.5 µM; in the experiment on IGROV1 ovarian, 31.8 µM; in the experiment on MALME-3M melanoma it was over 100 µM; with NCI-H460 lung, over 100 µM; in the experiment with NCI-H522 lung, over 100 µM. Also, the TGI with PC-3 prostate, in the experiment on SF-295 CNS and with UO-31 renal was over 100 µM in each case.

`O=C(O)CC(Sc1ccccc1)c1ccccc1` (configuration not stated): the TGI in the experiment on HL-60(TB) leukemia, in the experiment with IGROV1 ovarian, in the experiment with MALME-3M melanoma, in the experiment with NCI-H522 lung, in the experiment with PC-3 prostate and in the experiment with SF-295 CNS was over 100 µM each time. Besides, the TGI with SNB-75 CNS and with UO-31 renal was over 100 µM in each case.

As for `CN1CN(c2ccccc2)C2(CCN(CCC3COc4ccccc4O3)CC2)C1=O` (configuration not stated), the TGI in the experiment with HCC-2998 colon was 23.9 µM; with HL-60(TB) leukemia, 45.8 µM; with IGROV1 ovarian, 75.2 µM; in the experiment with MALME-3M melanoma it was 38.5 µM; with NCI-H522 lung, 33.4 µM; in the experiment with PC-3 prostate it was over 100 µM. The figures for the TGI in the experiment with SF-295 CNS, in the experiment with SNB-75 CNS and in the experiment on UO-31 renal were 37.2 µM, over 100 µM and 38.2 µM, respectively.

For the compound `C[N+](C)(C)CC(=O)N/N=C/c1ccncc1`, the TGI with HL-60(TB) leukemia, in the experiment with IGROV1 ovarian, in the experiment with MALME-3M melanoma, in the experiment on NCI-H460 lung, in the experiment on NCI-H522 lung and in the experiment with PC-3 prostate was over 100 µM in each case. Further, the TGI with SF-295 CNS, in the experiment on SNB-75 CNS and with UO-31 renal was over 100 µM throughout.

For the compound `CC(=O)Nc1nnc(S(C)(=O)=O)s1`, the TGI in the experiment on HL-60(TB) leukemia, with MALME-3M melanoma, in the experiment with NCI-H460 lung, in the experiment on PC-3 prostate, in the experiment with SF-295 CNS and in the experiment on UO-31 renal was over 100 µM each time.

Regarding `Cc1cc(S(=O)(=O)/N=C(/[N-]S(=O)(=O)c2ccc(Cl)cc2)[n+]2ccc(N(C)C)cc2)c(SCC(=O)O)cc1Cl`, the TGI in the experiment on HL-60(TB) leukemia, with MALME-3M melanoma, in the experiment on NCI-H460 lung, with PC-3 prostate, in the experiment on SF-295 CNS and in the experiment with SNB-75 CNS was over 100 µM throughout. For the same compound, the TGI with UO-31 renal was over 100 µM.
